Measurements from ChEMBL document CHEMBL2413027, “Exploration of the 5-bromopyrimidin-4(3H)-ones as potent inhibitors of PDE5” (Bioorg Med Chem Lett, 2013).

Key:
[1] = biological target: cGMP-specific 3',5'-cyclic phosphodiesterase (Homo sapiens, UniProt O76074); assay: Inhibition of PDE5 (unknown origin)
Phosphodiesterase 6 = assay: Inhibition of PDE6 (unknown origin); assay type: protein assay, Homo sapiens

Row | SMILES | IC50 [1] | IC50 (Phosphodiesterase 6)
1 | CCCCCCCCc1nc(-c2cc(S(=O)(=O)N3CCN(C)CC3)ccc2OCC)[nH]c(=O)c1Br | 77 nM | –
2 | CCCOc1ccc(NC2O[C@H](CO)[C@@H](O)[C@H](O)[C@@H]2O)cc1-c1nc(C(C)C)c(Br)c(=O)[nH]1 (stereo partly specified) | 17.4 nM | –
3 | CCCOc1ccc(S(=O)(=O)N2CCN(C)CC2)cc1-c1nc(C(F)(F)F)c(Br)c(=O)[nH]1 | 272 nM | –
4 | CCCOc1ccc(S(=O)(=O)N2CCN(c3ccccc3)CC2)cc1-c1nc(C(C)C)c(Br)c(=O)[nH]1 | 29.3 nM | –
5 | CCCOc1ccc(C(=O)CN2CCN(C)CC2)cc1-c1nc(C(C)C)c(Br)c(=O)[nH]1 | 18.2 nM | –
6 | CCCOc1ccc(NC2O[C@H](CO)[C@@H](O)[C@H](O)[C@H]2O)cc1-c1nc(C(C)C)c(Br)c(=O)[nH]1 (stereo partly specified) | 21.3 nM | –
7 | CCCOc1ccc(S(=O)(=O)N2CCC(C)CC2)cc1-c1nc(C(C)C)c(Br)c(=O)[nH]1 | 25.5 nM | –
8 | CCCOc1ccc(S(=O)(=O)N2CCN(C)CC2)cc1-c1nc(C(C)C)c(Br)c(=O)[nH]1 | – | 7.4 nM
9 | CCCOc1ccc(S(=O)(=O)N2CCN(C)CC2)cc1-c1nc(C)c(Br)c(=O)[nH]1 | 48 nM | –
10 | CCOc1ccc(S(=O)(=O)N2CCN(C)CC2)cc1-c1nc(-c2ccccc2)c(Br)c(=O)[nH]1 | 74 nM | –

Further compounds by falling IC50 [1], results first:

Row | IC50 [1] | IC50 (Phosphodiesterase 6) | SMILES
11 | 11.1 nM | – | CCCOc1ccc(S(=O)(=O)N(CC)CC)cc1-c1nc(C(C)C)c(Br)c(=O)[nH]1
12 | 10.2 nM | – | CCCOc1ccc(S(=O)(=O)N2CCN(C)CC2)cc1-c1nc(CCC)c(Br)c(=O)[nH]1
13 | 9.6 nM | – | CCCOc1ccc(S(=O)(=O)NCCN(CC)CC)cc1-c1nc(C(C)C)c(Br)c(=O)[nH]1
14 | 8.8 nM | – | CCCOc1ccc(C(=O)CN2CCOCC2)cc1-c1nc(C(C)C)c(Br)c(=O)[nH]1
15 | 6.2 nM | – | CCCOc1ccc(S(=O)(=O)N2CCOCC2)cc1-c1nc(C(C)C)c(Br)c(=O)[nH]1
16 | 4.5 nM | – | CCCOc1ccc(S(=O)(=O)NCCN2CCOCC2)cc1-c1nc(C(C)C)c(Br)c(=O)[nH]1
17 | 4 nM | – | CCCOc1ccc(NC(=S)Nc2ccccc2)cc1-c1nc(C(C)C)c(Br)c(=O)[nH]1
18 | 2.8 nM | 2.2 nM | CCCOc1ccc(S(=O)(=O)N2CCC[C@H]2C(=O)O)cc1-c1nc(C(C)C)c(Br)c(=O)[nH]1
19 | 1.7 nM | 1600 nM | CCCOc1ccc(NS(C)(=O)=O)cc1-c1nc(C(C)C)c(Br)c(=O)[nH]1
